Key:
U2OS [1] = test: cell viability relative to DMSO; higher = less toxic; settings: 72 h
Vero E6 [2] = test: as above; settings: 72 h
HepG2 [3] = test: as above; settings: 72 h
Caco-2 [4] = test: as above; settings: 72 h
Calu-3 [5] = test: as above; settings: 72 h
[6] = test system: A549-ACE2 infected with SARS-CoV-2; test: morphology score (similarity to uninfected cells); higher = more like uninfected cells; settings: 24 h
A549-ACE2 [7] = test: phospholipidosis EC50; higher = less potent phospholipidosis inducer
[8] = test system: A549-ACE2 infected with SARS-CoV-2; test: SARS-CoV-2 infection rate relative to DMSO; higher = more infection; settings: 24 h
U2OS [9] = test: relative viability EC50 (midpoint between 100% and the lowest measured viability); higher = less toxic; settings: 72 h
Vero E6 [10] = test: as above; settings: 72 h
HepG2 [11] = test: as above; settings: 72 h
Caco-2 [12] = test: as above; settings: 72 h
Calu-3 [13] = test: as above; settings: 72 h
A549-ACE2 [14] = test: drug-induced phospholipidosis relative to tamoxifen; higher = more phospholipidosis
U2OS [15] = test: drug sensitivity score (DSS) for viability; higher = more toxic; extreme values may be limits of the assay; settings: 72 h
Vero E6 [16] = test: as above; settings: 72 h
HepG2 [17] = test: as above; settings: 72 h
Caco-2 [18] = test: as above; settings: 72 h
Calu-3 [19] = test: as above; settings: 72 h
[20] = test system: A549-ACE2 infected with SARS-CoV-2; test: cell count relative to DMSO; higher = less toxic; settings: 24 h

c1cncc(CN2CCC(n3ncc4c(N5CCOCC5)nc(-c5ccc6[nH]ccc6c5)nc43)CC2)c1 [WAY-600]
Settings	SARS-CoV-2 infection rate [%]	cell count [%]	cell viability [%]	morphology score	phospholipidosis EC50 [µM]
A549-ACE2 [7], 24 h	–	–	–	–	0.65
Caco-2 [4], 1 nM	–	–	96.4	–	–
Caco-2 [4], 10 nM	–	–	95.9	–	–
Caco-2 [4], 100 nM	–	–	102	–	–
Caco-2 [4], 1000 nM	–	–	70.3	–	–
Caco-2 [4], 10000 nM	–	–	24.7	–	–
Calu-3 [5], 1 nM	–	–	101	–	–
Calu-3 [5], 10 nM	–	–	94.9	–	–
Calu-3 [5], 100 nM	–	–	95	–	–
Calu-3 [5], 1000 nM	–	–	64.8	–	–
Calu-3 [5], 10000 nM	–	–	27.3	–	–
HepG2 [3], 1 nM	–	–	106	–	–
HepG2 [3], 10 nM	–	–	112	–	–
HepG2 [3], 100 nM	–	–	98.5	–	–
HepG2 [3], 1000 nM	–	–	72.2	–	–
HepG2 [3], 10000 nM	–	–	2.5	–	–
U2OS [1], 1 nM	–	–	102	–	–
U2OS [1], 10 nM	–	–	98.1	–	–
U2OS [1], 100 nM	–	–	97.8	–	–
U2OS [1], 1000 nM	–	–	89.5	–	–
U2OS [1], 10000 nM	–	–	23	–	–
Vero E6 [2], 1 nM	–	–	103	–	–
Vero E6 [2], 10 nM	–	–	104	–	–
Vero E6 [2], 100 nM	–	–	99.4	–	–
Vero E6 [2], 1000 nM	–	–	82.2	–	–
Vero E6 [2], 10000 nM	–	–	25.2	–	–
[6], 0.1 µM	–	–	–	0.01	–
[6], 0.3 µM	–	–	–	0.46	–
[6], 1 µM	–	–	–	0.61	–
[6], 3 µM	–	–	–	0.33	–
[8], 0.1 µM	103	–	–	–	–
[8], 0.3 µM	81	–	–	–	–
[8], 1 µM	56	–	–	–	–
[8], 3 µM	35	–	–	–	–
[20], 0.1 µM	–	102	–	–	–
[20], 0.3 µM	–	101	–	–	–
[20], 1 µM	–	108	–	–	–
[20], 3 µM	–	107	–	–	–

Settings	drug sensitivity score	relative viability EC50 [µM]
Caco-2 [12]	–	1.19
Caco-2 [18]	8.2	–
Calu-3 [13]	–	1.01
Calu-3 [19]	8.1	–
HepG2 [11]	–	1.44
HepG2 [17]	9.5	–
U2OS [9]	–	2.07
U2OS [15]	6	–
Vero E6 [10]	–	1.59
Vero E6 [16]	6.9	–

drug-induced phospholipidosis [%], A549-ACE2 [14]
Settings	0.3 µM	0.833333 µM	3.33333 µM	6.66667 µM	10 µM	30 µM
24 h	18.3	55	79.8	55	39.9	10.3
48 h	16.7	40.1	86.2	–	–	–
72 h	17.1	29.6	–	–	–	–

CNCCCCOc1ccccc1Cc1ccccc1 [bifemelane]
Settings	SARS-CoV-2 infection rate [%]	cell count [%]	cell viability [%]	morphology score	phospholipidosis EC50 [µM]
A549-ACE2 [7], 24 h	–	–	–	–	5.4
A549-ACE2 [7], 48 h	–	–	–	–	5.1
A549-ACE2 [7], 72 h	–	–	–	–	6.67
Caco-2 [4], 1 nM	–	–	100	–	–
Caco-2 [4], 10 nM	–	–	101	–	–
Caco-2 [4], 100 nM	–	–	91.5	–	–
Caco-2 [4], 1000 nM	–	–	102	–	–
Caco-2 [4], 10000 nM	–	–	89.3	–	–
Calu-3 [5], 1 nM	–	–	112	–	–
Calu-3 [5], 10 nM	–	–	104	–	–
Calu-3 [5], 100 nM	–	–	95.8	–	–
Calu-3 [5], 1000 nM	–	–	90.1	–	–
Calu-3 [5], 10000 nM	–	–	104	–	–
HepG2 [3], 1 nM	–	–	98.7	–	–
HepG2 [3], 10 nM	–	–	101	–	–
HepG2 [3], 100 nM	–	–	89.5	–	–
HepG2 [3], 1000 nM	–	–	92.7	–	–
HepG2 [3], 10000 nM	–	–	85	–	–
U2OS [1], 1 nM	–	–	96.6	–	–
U2OS [1], 10 nM	–	–	91.1	–	–
U2OS [1], 100 nM	–	–	102	–	–
U2OS [1], 1000 nM	–	–	96.5	–	–
U2OS [1], 10000 nM	–	–	92.6	–	–
Vero E6 [2], 1 nM	–	–	109	–	–
Vero E6 [2], 10 nM	–	–	102	–	–
Vero E6 [2], 100 nM	–	–	96.8	–	–
Vero E6 [2], 1000 nM	–	–	100	–	–
Vero E6 [2], 10000 nM	–	–	89.5	–	–
[6], 0.3 µM	–	–	–	-0.03	–
[6], 3 µM	–	–	–	0.43	–
[6], 10 µM	–	–	–	0.7	–
[6], 30 µM	–	–	–	0.69	–
[8], 0.3 µM	101	–	–	–	–
[8], 3 µM	96	–	–	–	–
[8], 10 µM	43	–	–	–	–
[8], 30 µM	16	–	–	–	–
[20], 0.3 µM	–	100	–	–	–
[20], 3 µM	–	106	–	–	–
[20], 10 µM	–	115	–	–	–
[20], 30 µM	–	110	–	–	–

Settings	drug sensitivity score	relative viability EC50 [µM]
Caco-2 [12]	–	> 10
Caco-2 [18]	0	–
Calu-3 [13]	–	> 10
Calu-3 [19]	0	–
HepG2 [11]	–	> 10
HepG2 [17]	0.6	–
U2OS [9]	–	> 10
U2OS [15]	0	–
Vero E6 [10]	–	> 10
Vero E6 [16]	0	–

drug-induced phospholipidosis [%], A549-ACE2 [14]
Settings	0.3 µM	0.833333 µM	3.33333 µM	6.66667 µM	10 µM	30 µM
24 h	0.28	1.11	22.9	61.8	79.9	96.4
48 h	-0.08	-3.86	22.6	74.8	87.4	108
72 h	3.27	-0.257	16.8	61.6	86.2	116

CC/C(=C(/c1ccc(OCCN(C)C)cc1)c1cccc(O)c1)c1ccccc1 [droloxifene]
Settings	SARS-CoV-2 infection rate [%]	cell count [%]	cell viability [%]	morphology score	phospholipidosis EC50 [µM]
A549-ACE2 [7], 24 h	–	–	–	–	1.57
A549-ACE2 [7], 48 h	–	–	–	–	3.25
A549-ACE2 [7], 72 h	–	–	–	–	3.45
Caco-2 [4], 1 nM	–	–	100	–	–
Caco-2 [4], 10 nM	–	–	97.1	–	–
Caco-2 [4], 100 nM	–	–	92.5	–	–
Caco-2 [4], 1000 nM	–	–	97.4	–	–
Caco-2 [4], 10000 nM	–	–	43.8	–	–
Calu-3 [5], 1 nM	–	–	100	–	–
Calu-3 [5], 10 nM	–	–	96.2	–	–
Calu-3 [5], 100 nM	–	–	98.7	–	–
Calu-3 [5], 1000 nM	–	–	87.1	–	–
Calu-3 [5], 10000 nM	–	–	11	–	–
HepG2 [3], 1 nM	–	–	87.1	–	–
HepG2 [3], 10 nM	–	–	101	–	–
HepG2 [3], 100 nM	–	–	96.9	–	–
HepG2 [3], 1000 nM	–	–	109	–	–
HepG2 [3], 10000 nM	–	–	48.8	–	–
U2OS [1], 1 nM	–	–	97.7	–	–
U2OS [1], 10 nM	–	–	91.5	–	–
U2OS [1], 100 nM	–	–	102	–	–
U2OS [1], 1000 nM	–	–	96	–	–
U2OS [1], 10000 nM	–	–	75.5	–	–
Vero E6 [2], 1 nM	–	–	95.8	–	–
Vero E6 [2], 10 nM	–	–	99.1	–	–
Vero E6 [2], 100 nM	–	–	93.7	–	–
Vero E6 [2], 1000 nM	–	–	95.8	–	–
Vero E6 [2], 10000 nM	–	–	92.6	–	–
[6], 0.3 µM	–	–	–	0.24	–
[6], 3 µM	–	–	–	0.61	–
[6], 10 µM	–	–	–	0.81	–
[6], 30 µM	–	–	–	0.15	–
[8], 0.3 µM	93	–	–	–	–
[8], 3 µM	64	–	–	–	–
[8], 10 µM	13	–	–	–	–
[8], 30 µM	39	–	–	–	–
[20], 0.3 µM	–	102	–	–	–
[20], 3 µM	–	113	–	–	–
[20], 10 µM	–	110	–	–	–
[20], 30 µM	–	102	–	–	–

Settings	drug sensitivity score	relative viability EC50 [µM]
Caco-2 [12]	–	2.8
Caco-2 [18]	3.4	–
Calu-3 [13]	–	2.02
Calu-3 [19]	7.1	–
HepG2 [11]	–	3.84
HepG2 [17]	2.2	–
U2OS [9]	–	> 10
U2OS [15]	1.5	–
Vero E6 [10]	–	> 10
Vero E6 [16]	0	–

drug-induced phospholipidosis [%], A549-ACE2 [14]
Settings	0.3 µM	0.833333 µM	3.33333 µM	6.66667 µM	10 µM	30 µM
24 h	2.02	14.1	52.7	74.9	75.2	51.7
48 h	8.07	8.41	50.9	81.7	87.7	–
72 h	3.83	3.63	41.9	82	85.5	–

Reference: the supplement of paper PMC13380429
